According to the NIST ThermoML archive (doi:10.1016/j.jct.2018.02.025):
“And” between values parts separate entries of the source, which are not always exact repeats. Equal entries are not always repeated.

Settings: Transpiration method

c1ccc(-c2ccccc2)cc1 [biphenyl]
Settings | vapor or sublimation pressure
295.4 K, Crystal | 0.00091 kPa
298.2 K, Crystal | 0.00126 kPa
303.3 K, Crystal | 0.00236 kPa
308.2 K, Crystal | 0.00383 kPa
313.2 K, Crystal | 0.00653 kPa
315.4 K, Crystal | 0.00777 kPa
318.3 K, Crystal | 0.01045 kPa
323.5 K, Crystal | 0.01637 kPa
325.8 K, Crystal | 0.02135 kPa
328.4 K, Crystal | 0.02749 kPa
331.3 K, Crystal | 0.03389 kPa
333.4 K, Crystal | 0.0404 kPa
335.8 K, Crystal | 0.04928 kPa
338.4 K, Crystal | 0.06189 kPa
345.7 K, Liquid | 0.1041 kPa
347.7 K, Liquid | 0.1176 kPa
348.3 K, Liquid | 0.1226 kPa
350.4 K, Liquid | 0.1376 kPa
353.3 K, Liquid | 0.1597 kPa
358.3 K, Liquid | 0.2153 kPa
363.3 K, Liquid | 0.2837 kPa
368.2 K, Liquid | 0.3498 kPa and 0.3659 kPa
373.1 K, Liquid | 0.4791 kPa
375.4 K, Liquid | 0.5425 kPa
376.2 K, Liquid | 0.5682 kPa
